In patent US6890944B2, “Organic acid salt of amlodipine” (priority 2002, dated 2005):
Where two headings read alike, the source gives them in different places.

Experiments:
Type in all cases: physicochemical
[1] = Chemical stability in aqueous state, stored at 25° C. for 4 weeks in complete darkness (HPLC); details: in distilled water
Protocol: The resulting aqueous solutions were stored at 25° C. for 4 weeks in complete darkness, after which a measurement was made of the contents of the salts with resort to HPLC under the same conditions as in the solid state.

[2] = Test for solubility in various solvents; details: based on weight of amlodipine, note: dissolved at 37° C.
[3] = Test for hygroscopicity: water content (K.F. water %) at 25° C. at different humidity levels; details: for water content (K.F. water %): 25° C.
[4] = Test for light stability: aqueous solutions stored at 25° C. for 4 weeks exposed to sunlight (HPLC); details: 25° C. sunlight; for Content (HPLC): aqueous solution, stored for 4 weeks; for colour change: light stability test, 4 weeks
Protocol: The resulting aqueous solutions were stored at 25° C. for 4 weeks while being exposed to sunlight. A measurement was made of the contents of the salts with resort to HPLC under the same conditions as in the chemical stability test.

[5] = Chemical stability in solid state, accelerated test at 60° C. (HPLC content)

## CCOC(=O)C1=C(COCCN)NC(C)=C(C(=O)OC)C1c1ccccc1Cl.O=C(O)Cc1ccc(O)cc1 (centres unmarked) [amlodipine p-hydroxyphenylacetate]
[1]
  decomposition products / content change (HPLC): neither decomposition products nor content change is found
[2]; Dist. Water, 25° C. (text), listed as p-Hydroxyphenylacetate
  solubility: 3000 µg/mL
[2]; buffer pH 6, ionic strength 0.2, 25 °C, pH 6, aqueous buffer, pH 6, ionic strength 0.2 buffer, 25° C., read-out: solubility
  solubility: 2200 µg/mL
[2]; buffer pH 7, ionic strength 0.2, 25 °C, pH 7, aqueous buffer, pH 7, ionic strength 0.2 buffer, 25° C., read-out: solubility
  solubility: 1100 µg/mL
[2]; pH 2, ionic strength 0.2 buffer, 25° C. (text), listed as p-Hydroxyphenylacetate
  solubility: 8900 µg/mL
[2]; pH 4, ionic strength 0.2 buffer, 25° C. (text), listed as p-Hydroxyphenylacetate
  solubility: 8800 µg/mL
[2]; pH 7.4, ionic strength 0.2 buffer, 25° C. (text), listed as p-Hydroxyphenylacetate
  solubility: 4000 µg/mL
[2]; pH 8, ionic strength 0.2 buffer, 25° C. (text), listed as p-Hydroxyphenylacetate
  solubility: 3000 µg/mL
[3]; 25% RH, 1 week, listed as p-hydroxyphenylacetate
  water content (K.F. water %): 0.08%
[3]; 60% RH, 1 week, listed as p-hydroxyphenylacetate
  water content (K.F. water %): 0.1%
[3]; 75% RH, 1 week, listed as p-hydroxyphenylacetate
  water content (K.F. water %): 0.14%
[3]; 90% RH, 1 week
  water content (K.F. water %): 0.17%
[3]; Initial, listed as p-hydroxyphenylacetate
  water content (K.F. water %): 0.15%
[3]; relative humidity 95%
  hygroscopicity: ≤ 0.5%
[4]
  Content (HPLC): 98.9%
  colour change: kept its original white color
[5]; 1 week
  HPLC content: 99.6%
[5]; 2 weeks
  HPLC content: 99.5%
[5]; 4 weeks
  HPLC content: 99.4%
[5]; initial
  HPLC content: 99.7%

## CCOC(=O)C1=C(COCCN)NC(C)=C(C(=O)OC)C1c1ccccc1Cl (centres unmarked) [Besylate, amlodipine besylate, reference compound]
[2]; Dist. Water, 25° C. (text)
  solubility: 1290 µg/mL
[2]; pH 2, ionic strength 0.2 buffer, 25° C. (text)
  solubility: 1290 µg/mL
[2]; pH 4, ionic strength 0.2 buffer, 25° C. (text)
  solubility: 1320 µg/mL
[2]; pH 6, ionic strength 0.2 buffer, 25° C.
  solubility: 1280 µg/mL
[2]; pH 7, ionic strength 0.2 buffer, 25° C.
  solubility: 640 µg/mL
[2]; pH 7.4, ionic strength 0.2 buffer, 25° C. (text)
  solubility: 1350 µg/mL
[2]; pH 8, ionic strength 0.2 buffer, 25° C. (text)
  solubility: 1250 µg/mL
[3]; 25% RH, 1 week
  water content (K.F. water %): 0.10%
[3]; 60% RH, 1 week
  water content (K.F. water %): 0.09%
[3]; 75% RH, 1 week
  water content (K.F. water %): 0.15%
[3]; Initial
  water content (K.F. water %): 0.14%
[4]
  Content (HPLC): 82.5%
[4]; listed as amlodipine besylate
  colour change: turned yellow from white
[5]; 1 week
  HPLC content: 99.6%
[5]; 2 weeks
  HPLC content: 99.4%
[5]; 4 weeks
  HPLC content: 99.2%
[5]; initial
  HPLC content: 99.6%

## CCOC(=O)C1=C(COCCN)NC(C)=C(C(=O)OC)C1c1ccccc1Cl.Cc1ccc(S(=O)(=O)O)cc1 (centres unmarked) [Tosylate, Amlodipine Para-toluenesulfonate]
[4]
  Content (HPLC): 72.0%
